# Results taken from ChEMBL document CHEMBL3779792, “Anti-proliferative evaluation of monoterpene derivatives against leukemia” (Eur J Med Chem, 2016).
# Tested on: not listed separately
# Assay: Cytotoxicity against human NALM6 cells after 72 hrs by Cell-Titer Glo assay
# Type: functional, cell-based
# Settings: NALM-6, 72 h
row,SMILES,EC50
1,C=C[C@@](C)(/C=C/c1ccc(OS(=O)(=O)c2ccc(C)cc2)cc1)CCC=C(C)C,> 43.5 µM
2,C=C[C@@](C)(/C=C/c1ccc(O)c(/C=C/C(=O)OCC)c1)CCC=C(C)C,20.9 µM
3,C=C[C@@](C)(/C=C/c1ccc(O)c(C=O)c1)CCC=C(C)C,11.2 µM
4,C=C[C@@](C)(/C=C/c1ccc(O)cc1)CC/C=C(C)/C=C/C(=O)OCC,0.815 µM
5,C=C[C@@](C)(/C=C/c1ccc(O)cc1)CCC=C(C)C [BAKUCHIOL],38 µM
6,COc1ccc(/C=C/[C@@](C)(/C=C/c2ccc(O)c(/C=C/C(=O)OC(C)(C)C)c2)CCC=C(C)C)cc1,> 43.5 µM
7,C=C[C@@](C)(/C=C/c1ccc(O)c(/C=C/C#N)c1)CCC=C(C)C,> 43.5 µM

# Tested on: Jurkat
# Assay: Cytotoxicity against human Jurkat cells after 72 hrs by Cell-Titer Glo assay
# Type: functional, cell-based
# Settings: not given
row,SMILES,EC50
1,C=C[C@@](C)(/C=C/c1ccc(OS(=O)(=O)c2ccc(C)cc2)cc1)CCC=C(C)C,> 49 µM
2,C=C[C@@](C)(/C=C/c1ccc(O)c(/C=C/C(=O)OCC)c1)CCC=C(C)C,> 49 µM
3,C=C[C@@](C)(/C=C/c1ccc(O)c(C=O)c1)CCC=C(C)C,> 49 µM
4,C=C[C@@](C)(/C=C/c1ccc(O)cc1)CC/C=C(C)/C=C/C(=O)OCC,> 49 µM
5,C=C[C@@](C)(/C=C/c1ccc(O)cc1)CCC=C(C)C [BAKUCHIOL],> 49 µM
6,COc1ccc(/C=C/[C@@](C)(/C=C/c2ccc(O)c(/C=C/C(=O)OC(C)(C)C)c2)CCC=C(C)C)cc1,> 49 µM
7,C=C[C@@](C)(/C=C/c1ccc(O)c(/C=C/C#N)c1)CCC=C(C)C,> 49 µM

# Tested on: Raji
# Assay: Cytotoxicity against human Raji cells after 72 hrs by Cell-Titer Glo assay
# Type: functional, cell-based
# Settings: not given
row,SMILES,EC50
1,C=C[C@@](C)(/C=C/c1ccc(OS(=O)(=O)c2ccc(C)cc2)cc1)CCC=C(C)C,> 26 µM
2,C=C[C@@](C)(/C=C/c1ccc(O)c(/C=C/C(=O)OCC)c1)CCC=C(C)C,> 26 µM
3,C=C[C@@](C)(/C=C/c1ccc(O)c(C=O)c1)CCC=C(C)C,> 26 µM
4,C=C[C@@](C)(/C=C/c1ccc(O)cc1)CC/C=C(C)/C=C/C(=O)OCC,> 26 µM
5,C=C[C@@](C)(/C=C/c1ccc(O)cc1)CCC=C(C)C [BAKUCHIOL],> 26 µM
6,COc1ccc(/C=C/[C@@](C)(/C=C/c2ccc(O)c(/C=C/C(=O)OC(C)(C)C)c2)CCC=C(C)C)cc1,> 26 µM
7,C=C[C@@](C)(/C=C/c1ccc(O)c(/C=C/C#N)c1)CCC=C(C)C,> 26 µM

# Tested on: BJ
# Assay: Cytotoxicity against human BJ cells after 72 hrs by Cell-Titer Glo assay
# Type: cell-based
# Settings: not given
row,SMILES,EC50
1,C=C[C@@](C)(/C=C/c1ccc(OS(=O)(=O)c2ccc(C)cc2)cc1)CCC=C(C)C,> 36.6 µM
2,C=C[C@@](C)(/C=C/c1ccc(O)c(/C=C/C(=O)OCC)c1)CCC=C(C)C,> 36.6 µM
3,C=C[C@@](C)(/C=C/c1ccc(O)c(C=O)c1)CCC=C(C)C,> 36.6 µM
4,C=C[C@@](C)(/C=C/c1ccc(O)cc1)CC/C=C(C)/C=C/C(=O)OCC,> 36.6 µM
5,C=C[C@@](C)(/C=C/c1ccc(O)cc1)CCC=C(C)C [BAKUCHIOL],> 36.6 µM
6,COc1ccc(/C=C/[C@@](C)(/C=C/c2ccc(O)c(/C=C/C(=O)OC(C)(C)C)c2)CCC=C(C)C)cc1,> 36.6 µM
7,C=C[C@@](C)(/C=C/c1ccc(O)c(/C=C/C#N)c1)CCC=C(C)C,> 36.6 µM

# Tested on: HepG2
# Assay: Cytotoxicity against human HepG2 cells after 72 hrs by Cell-Titer Glo assay
# Type: functional, cell-based
# Settings: HepG2, 72 h
row,SMILES,EC50
1,C=C[C@@](C)(/C=C/c1ccc(OS(=O)(=O)c2ccc(C)cc2)cc1)CCC=C(C)C,> 52.1 µM
2,C=C[C@@](C)(/C=C/c1ccc(O)c(/C=C/C(=O)OCC)c1)CCC=C(C)C,> 52.1 µM
3,C=C[C@@](C)(/C=C/c1ccc(O)c(C=O)c1)CCC=C(C)C,> 52.1 µM
4,C=C[C@@](C)(/C=C/c1ccc(O)cc1)CC/C=C(C)/C=C/C(=O)OCC,> 52.1 µM
5,C=C[C@@](C)(/C=C/c1ccc(O)cc1)CCC=C(C)C [BAKUCHIOL],> 52.1 µM
6,COc1ccc(/C=C/[C@@](C)(/C=C/c2ccc(O)c(/C=C/C(=O)OC(C)(C)C)c2)CCC=C(C)C)cc1,> 52.1 µM
7,C=C[C@@](C)(/C=C/c1ccc(O)c(/C=C/C#N)c1)CCC=C(C)C,> 52.1 µM

# Tested on: HEK293
# Assay: Cytotoxicity against HEK293 cells after 72 hrs by Cell-Titer Glo assay
# Type: cell-based
# Settings: Homo sapiens, HEK293, 72 h
row,SMILES,EC50
1,C=C[C@@](C)(/C=C/c1ccc(OS(=O)(=O)c2ccc(C)cc2)cc1)CCC=C(C)C,> 36.6 µM
2,C=C[C@@](C)(/C=C/c1ccc(O)c(/C=C/C(=O)OCC)c1)CCC=C(C)C,> 36.6 µM
3,C=C[C@@](C)(/C=C/c1ccc(O)c(C=O)c1)CCC=C(C)C,> 36.6 µM
4,C=C[C@@](C)(/C=C/c1ccc(O)cc1)CC/C=C(C)/C=C/C(=O)OCC,> 36.6 µM
5,C=C[C@@](C)(/C=C/c1ccc(O)cc1)CCC=C(C)C [BAKUCHIOL],> 36.6 µM
6,COc1ccc(/C=C/[C@@](C)(/C=C/c2ccc(O)c(/C=C/C(=O)OC(C)(C)C)c2)CCC=C(C)C)cc1,> 36.6 µM
7,C=C[C@@](C)(/C=C/c1ccc(O)c(/C=C/C#N)c1)CCC=C(C)C,> 36.6 µM

# Tested on: not listed separately
# Assay: Cytotoxicity against human SEM cells after 72 hrs by Cell-Titer Glo assay
# Type: functional, cell-based
# Settings: not given
row,SMILES,EC50
1,C=C[C@@](C)(/C=C/c1ccc(OS(=O)(=O)c2ccc(C)cc2)cc1)CCC=C(C)C,> 43.5 µM
2,C=C[C@@](C)(/C=C/c1ccc(O)c(/C=C/C(=O)OCC)c1)CCC=C(C)C,> 36.6 µM
3,C=C[C@@](C)(/C=C/c1ccc(O)c(C=O)c1)CCC=C(C)C,8.51 µM
4,C=C[C@@](C)(/C=C/c1ccc(O)cc1)CC/C=C(C)/C=C/C(=O)OCC,> 36.6 µM
5,C=C[C@@](C)(/C=C/c1ccc(O)cc1)CCC=C(C)C [BAKUCHIOL],15.3 µM
6,COc1ccc(/C=C/[C@@](C)(/C=C/c2ccc(O)c(/C=C/C(=O)OC(C)(C)C)c2)CCC=C(C)C)cc1,> 36.6 µM
7,C=C[C@@](C)(/C=C/c1ccc(O)c(/C=C/C#N)c1)CCC=C(C)C,> 36.6 µM
